Reference: ChEMBL document CHEMBL1212733, “Chemical genomics in Escherichia coli identifies an inhibitor of bacterial lipoprotein targeting” (Nat Chem Biol, 2009)
In brackets after ≈: the same amount, converted by molar mass. Activity calls are given as the source filed them. The rule behind the calls is not given here.

Columns and labels:
[1] = target: T1, Outer membrane protein TolC (Escherichia coli (strain K12)) (UniProt P02930); assay: Inhibition of IPTG-stimulated Escherichia coli K-12 tolC at 16 fold MIC by microarray analysis
T1 sequence (whole entry): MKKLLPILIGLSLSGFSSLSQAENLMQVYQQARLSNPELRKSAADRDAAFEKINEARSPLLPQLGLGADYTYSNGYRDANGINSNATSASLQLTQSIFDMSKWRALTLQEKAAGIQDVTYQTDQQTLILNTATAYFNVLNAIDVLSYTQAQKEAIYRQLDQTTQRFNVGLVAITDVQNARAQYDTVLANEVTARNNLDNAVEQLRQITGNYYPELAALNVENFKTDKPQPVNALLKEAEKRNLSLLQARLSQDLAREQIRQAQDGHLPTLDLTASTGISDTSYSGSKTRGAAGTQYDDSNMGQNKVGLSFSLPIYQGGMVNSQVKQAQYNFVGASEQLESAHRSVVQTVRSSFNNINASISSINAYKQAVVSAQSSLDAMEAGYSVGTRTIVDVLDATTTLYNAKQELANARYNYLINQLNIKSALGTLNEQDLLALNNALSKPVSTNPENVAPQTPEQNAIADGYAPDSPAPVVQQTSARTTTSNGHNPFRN

Escherichia coli [2] = assay: Antibacterial activity against Escherichia coli K-12 harboring lolA gene after 16 hrs by serial dilution method; format: functional; details: K-12, 16 h
Escherichia coli [3] = assay: Induction of Lpp accumulation in inner membrane of Escherichia coli K-12 MG1655 at 320 ug/ml after 20 mins by autoradiography; format: functional, organism-based
Pseudomonas aeruginosa [4] = assay: Antibacterial activity against multidrug-resistant Pseudomonas aeruginosa PS364 after 16 hrs by microbroth dilution method; format: functional; details: PS364, 16 h
[5] = target: Multidrug efflux pump subunit AcrB (Escherichia coli (strain K12)) (UniProt P31224); assay: Binding affinity to Escherichia coli K-12 MC1061 acrB assessed as decrease in susceptibility to compound efflux at 2 to 128 ug/ml after 16 hrs by plate reader assay
Escherichia coli [6] = assay: Induction of Lpp accumulation in inner membrane of Escherichia coli K-12 MG1655 at 320 ug/ml after 20 mins by SDS-PAGE; format: functional, organism-based
Pseudomonas aeruginosa [7] = assay: Antibacterial activity against multidrug-resistant Pseudomonas aeruginosa PS225 after 16 hrs by microbroth dilution method; format: functional; details: PS225, 16 h
Burkholderia cepacia = assay: Antibacterial activity against Burkholderia cepacia B154408 after 16 hrs by microbroth dilution method; format: functional; details: B154408, 16 h
Pseudomonas aeruginosa [8] = assay: Antibacterial activity against multidrug-resistant Pseudomonas aeruginosa PS36769 after 16 hrs by microbroth dilution method; format: functional; details: PS36769, 16 h
Pseudomonas aeruginosa [9] = assay: Antibacterial activity against multidrug-resistant Pseudomonas aeruginosa PS232 after 16 hrs by microbroth dilution method; format: functional; details: PS232, 16 h
Pseudomonas aeruginosa [10] = assay: Antibacterial activity against multidrug-resistant Pseudomonas aeruginosa PS8539204 after 16 hrs by microbroth dilution method; format: functional; details: PS8539204, 16 h
[11] = target: T1, Outer membrane protein TolC (Escherichia coli (strain K12)); assay: Inhibition of IPTG-stimulated Escherichia coli K-12 tolC at 4 fold MIC by microarray analysis
Pseudomonas aeruginosa [12] = assay: Antibacterial activity against multidrug-resistant Pseudomonas aeruginosa PS301 after 16 hrs by microbroth dilution method; format: functional; details: PS301, 16 h
Pseudomonas aeruginosa [13] = assay: Antibacterial activity against multidrug-resistant Pseudomonas aeruginosa PAE302 after 16 hrs by microbroth dilution method; format: functional; details: PAE302, 16 h
[14] = target: T2, Outer-membrane lipoprotein carrier protein (Escherichia coli (strain K12)) (UniProt P61316); assay: Inhibition of IPTG-stimulated Escherichia coli K-12 lolA at 16 fold MIC after 16 hrs by spectrophotometry
T2 sequence (whole entry): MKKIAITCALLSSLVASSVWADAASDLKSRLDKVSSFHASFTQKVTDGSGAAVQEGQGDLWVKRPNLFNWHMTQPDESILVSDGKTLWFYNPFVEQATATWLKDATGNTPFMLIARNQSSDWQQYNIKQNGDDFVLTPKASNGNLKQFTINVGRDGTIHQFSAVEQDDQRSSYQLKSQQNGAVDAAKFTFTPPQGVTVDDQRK

[15] = target: T2, Outer-membrane lipoprotein carrier protein (Escherichia coli (strain K12)); assay: Inhibition of IPTG-stimulated Escherichia coli K-12 lolA at 16 fold MIC by microarray analysis
Escherichia coli [16] = assay: Antibacterial activity against Escherichia coli ATCC 25922 after 16 hrs by microbroth dilution method; format: functional; details: ATCC 25922, 16 h
Pseudomonas aeruginosa [17] = assay: Antibacterial activity against multidrug-resistant Pseudomonas aeruginosa PS35823 after 16 hrs by microbroth dilution method; format: functional; details: PS35823, 16 h
[18] = target: Outer-membrane lipoprotein carrier protein (Escherichia coli (strain K12), UniProt P61316); assay: Binding affinity to Escherichia coli K-12 lolA expressed in Escherichia coli BL21(AI) by NMR spectrometry
Bacillus subtilis = assay: Antibacterial activity against Bacillus subtilis 168 after 16 hrs by microbroth dilution method; format: functional; details: subsp. subtilis str. 168, 16 h
Candida albicans = assay: Antifungal activity against Candida albicans after 16 hrs by microbroth dilution method; format: functional
Pseudomonas aeruginosa [19] = assay: Antibacterial activity against multidrug-resistant Pseudomonas aeruginosa PAE252 after 16 hrs by microbroth dilution method; format: functional; details: PAE252, 16 h
Escherichia coli [20] = assay: Antibacterial activity against Escherichia coli K-12 MG1655 after 16 hrs by microbroth dilution method; format: functional; details: K-12 MG1655, 16 h
Pseudomonas aeruginosa [21] = assay: Antibacterial activity against Pseudomonas aeruginosa PAO1 after 16 hrs by microbroth dilution method; format: functional; details: PAO1, 16 h
Pseudomonas aeruginosa [22] = assay: Antibacterial activity against multidrug-resistant Pseudomonas aeruginosa PS8534624 after 16 hrs by microbroth dilution method; format: functional; details: PS8534624, 16 h
Pseudomonas aeruginosa [23] = assay: Antibacterial activity against multidrug-resistant Pseudomonas aeruginosa PS37834 after 16 hrs by microbroth dilution method; format: functional; details: PS37834, 16 h
Pseudomonas aeruginosa [24] = assay: Antibacterial activity against multidrug-resistant Pseudomonas aeruginosa PS37619 after 16 hrs by microbroth dilution method; format: functional; details: PS37619, 16 h
Staphylococcus aureus = assay: Antibacterial activity against Staphylococcus aureus after 16 hrs by microbroth dilution method; format: functional
Pseudomonas aeruginosa [25] = assay: Antibacterial activity against multidrug-resistant Pseudomonas aeruginosa PAE349 after 16 hrs by microbroth dilution method; format: functional; details: PAE349, 16 h
Pseudomonas aeruginosa [26] = assay: Antibacterial activity against multidrug-resistant Pseudomonas aeruginosa PS216 after 16 hrs by microbroth dilution method; format: functional; details: PS216, 16 h
Micrococcus luteus = assay: Antibacterial activity against Micrococcus luteus after 16 hrs by microbroth dilution method; format: functional
HeLa = assay: Cytotoxicity against human HeLa cells after 24 hrs by Cell Titre-Glo luminescent assay; format: cell-based
[27] = tested on: Stenotrophomonas maltophilia; assay: Antibacterial activity against Stenotrophomonas maltophilia B22020 after 16 hrs by microbroth dilution method; format: functional; details: B22020, 16 h
Pseudomonas aeruginosa [28] = assay: Antibacterial activity against multidrug-resistant Pseudomonas aeruginosa PAE231 after 16 hrs by microbroth dilution method; format: functional; details: PAE231, 16 h
[29] = target: T2, Outer-membrane lipoprotein carrier protein (Escherichia coli (strain K12)); assay: Inhibition of IPTG-stimulated Escherichia coli K-12 lolA at 4 fold MIC by microarray analysis
[30] = target: T2, Outer-membrane lipoprotein carrier protein (Escherichia coli (strain K12)); assay: Inhibition of IPTG-stimulated Escherichia coli K-12 lolA at 8 fold MIC by microarray analysis
Pseudomonas aeruginosa [31] = assay: Antibacterial activity against multidrug-resistant Pseudomonas aeruginosa PAE287 after 16 hrs by microbroth dilution method; format: functional; details: PAE287, 16 h
[32] = target: T1, Outer membrane protein TolC (Escherichia coli (strain K12)); assay: Inhibition of IPTG-stimulated Escherichia coli K-12 tolC at 8 fold MIC by microarray analysis

Sequence of Multidrug efflux pump subunit AcrB (Escherichia coli (strain K12)) (P31224 whole entry): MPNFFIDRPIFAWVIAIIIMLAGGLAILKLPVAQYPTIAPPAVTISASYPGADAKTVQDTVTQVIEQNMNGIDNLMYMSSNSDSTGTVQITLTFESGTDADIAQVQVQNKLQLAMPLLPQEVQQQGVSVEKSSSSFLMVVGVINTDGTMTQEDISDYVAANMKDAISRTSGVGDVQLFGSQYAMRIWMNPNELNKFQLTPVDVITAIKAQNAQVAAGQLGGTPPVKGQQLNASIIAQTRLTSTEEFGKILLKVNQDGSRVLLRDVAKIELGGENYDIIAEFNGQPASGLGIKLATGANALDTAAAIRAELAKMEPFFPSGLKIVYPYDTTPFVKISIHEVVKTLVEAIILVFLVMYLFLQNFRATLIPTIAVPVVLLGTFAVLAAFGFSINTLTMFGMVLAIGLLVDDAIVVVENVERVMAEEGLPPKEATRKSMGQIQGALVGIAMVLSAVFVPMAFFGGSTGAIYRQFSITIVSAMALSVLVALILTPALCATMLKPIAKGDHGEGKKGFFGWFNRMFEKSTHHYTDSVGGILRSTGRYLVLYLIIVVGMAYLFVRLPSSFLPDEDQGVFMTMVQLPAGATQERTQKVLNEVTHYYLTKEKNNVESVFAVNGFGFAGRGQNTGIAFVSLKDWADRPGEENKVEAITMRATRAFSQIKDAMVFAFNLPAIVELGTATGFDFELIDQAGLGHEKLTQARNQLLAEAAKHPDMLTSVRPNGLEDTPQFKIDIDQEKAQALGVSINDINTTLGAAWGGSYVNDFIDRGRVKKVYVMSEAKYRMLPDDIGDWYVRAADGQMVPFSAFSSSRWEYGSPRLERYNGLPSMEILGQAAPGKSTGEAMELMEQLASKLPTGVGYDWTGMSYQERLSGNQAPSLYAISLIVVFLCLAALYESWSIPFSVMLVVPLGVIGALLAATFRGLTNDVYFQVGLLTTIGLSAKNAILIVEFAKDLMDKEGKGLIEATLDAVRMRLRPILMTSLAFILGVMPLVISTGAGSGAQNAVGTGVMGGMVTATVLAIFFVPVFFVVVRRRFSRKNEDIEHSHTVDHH

COc1ccc(CCN2CN=C(SCc3ccc(Cl)cc3)NC2)cc1OC
inhibition [1]: Active
MIC (Escherichia coli [2]): 8 mg/L (≈ 19.7 µM)
Activity (Escherichia coli [3]): Active
MIC (Pseudomonas aeruginosa [4]): 128 mg/L (≈ 315 µM)
Activity [5]: Active
Activity (Escherichia coli [6]): Active
MIC (Pseudomonas aeruginosa [7]): 1 mg/L (≈ 2.46 µM)
MIC (Burkholderia cepacia): 128 mg/L (≈ 315 µM)
MIC (Pseudomonas aeruginosa [8]): 4 mg/L (≈ 9.85 µM)
MIC (Pseudomonas aeruginosa [9]): 4 mg/L (≈ 9.85 µM)
MIC (Pseudomonas aeruginosa [10]): 128 mg/L (≈ 315 µM)
inhibition [11]: Active
MIC (Pseudomonas aeruginosa [12]): 256 mg/L (≈ 631 µM)
MIC (Pseudomonas aeruginosa [13]): 4 mg/L (≈ 9.85 µM)
inhibition [14]: inactive
inhibition [15]: Active
MIC (Escherichia coli [16]): 16 mg/L (≈ 39.4 µM)
MIC (Pseudomonas aeruginosa [17]): 4 mg/L (≈ 9.85 µM)
Kd [18]: 7.5 µM
MIC (Bacillus subtilis): > 256 mg/L
MIC (Candida albicans): > 256 mg/L
MIC (Pseudomonas aeruginosa [19]): 2 mg/L (≈ 4.93 µM)
MIC (Escherichia coli [20]): 16 mg/L (≈ 39.4 µM)
MIC (Pseudomonas aeruginosa [21]): 4 mg/L (≈ 9.85 µM)
MIC (Pseudomonas aeruginosa [22]): 2 mg/L (≈ 4.93 µM)
MIC (Pseudomonas aeruginosa [23]): 16 mg/L (≈ 39.4 µM)
MIC (Pseudomonas aeruginosa [24]): 128 mg/L (≈ 315 µM)
MIC (Staphylococcus aureus): > 256 mg/L
MIC (Pseudomonas aeruginosa [25]): 4 mg/L (≈ 9.85 µM)
MIC (Pseudomonas aeruginosa [26]): 16 mg/L (≈ 39.4 µM)
MIC (Micrococcus luteus): > 256 mg/L
Activity (HeLa): > 256 µg/mL
MIC [27]: 8 mg/L (≈ 19.7 µM)
MIC (Pseudomonas aeruginosa [28]): 16 mg/L (≈ 39.4 µM)
inhibition [29]: Active
inhibition [30]: Active
MIC (Pseudomonas aeruginosa [31]): 4 mg/L (≈ 9.85 µM)
inhibition [32]: Active
